Patent US10077284B2, “UBA5 inhibitors” (THE GOVERNING COUNCIL OF THE UNIVERSITY OF TORONTO, priority 2014, dated 2018)
pIC50: −log10 of the molar value. Values joined by “and” are separate entries in the source; they are usually repeats but may differ in a detail not shown here. Identical values can stand only once.

Target: T1, Ub activating enzyme (UAE) (Homo sapiens, UniProt P22314)
T1 construct: purchased Boston Biochem
T1 sequence (P22314 1-1058): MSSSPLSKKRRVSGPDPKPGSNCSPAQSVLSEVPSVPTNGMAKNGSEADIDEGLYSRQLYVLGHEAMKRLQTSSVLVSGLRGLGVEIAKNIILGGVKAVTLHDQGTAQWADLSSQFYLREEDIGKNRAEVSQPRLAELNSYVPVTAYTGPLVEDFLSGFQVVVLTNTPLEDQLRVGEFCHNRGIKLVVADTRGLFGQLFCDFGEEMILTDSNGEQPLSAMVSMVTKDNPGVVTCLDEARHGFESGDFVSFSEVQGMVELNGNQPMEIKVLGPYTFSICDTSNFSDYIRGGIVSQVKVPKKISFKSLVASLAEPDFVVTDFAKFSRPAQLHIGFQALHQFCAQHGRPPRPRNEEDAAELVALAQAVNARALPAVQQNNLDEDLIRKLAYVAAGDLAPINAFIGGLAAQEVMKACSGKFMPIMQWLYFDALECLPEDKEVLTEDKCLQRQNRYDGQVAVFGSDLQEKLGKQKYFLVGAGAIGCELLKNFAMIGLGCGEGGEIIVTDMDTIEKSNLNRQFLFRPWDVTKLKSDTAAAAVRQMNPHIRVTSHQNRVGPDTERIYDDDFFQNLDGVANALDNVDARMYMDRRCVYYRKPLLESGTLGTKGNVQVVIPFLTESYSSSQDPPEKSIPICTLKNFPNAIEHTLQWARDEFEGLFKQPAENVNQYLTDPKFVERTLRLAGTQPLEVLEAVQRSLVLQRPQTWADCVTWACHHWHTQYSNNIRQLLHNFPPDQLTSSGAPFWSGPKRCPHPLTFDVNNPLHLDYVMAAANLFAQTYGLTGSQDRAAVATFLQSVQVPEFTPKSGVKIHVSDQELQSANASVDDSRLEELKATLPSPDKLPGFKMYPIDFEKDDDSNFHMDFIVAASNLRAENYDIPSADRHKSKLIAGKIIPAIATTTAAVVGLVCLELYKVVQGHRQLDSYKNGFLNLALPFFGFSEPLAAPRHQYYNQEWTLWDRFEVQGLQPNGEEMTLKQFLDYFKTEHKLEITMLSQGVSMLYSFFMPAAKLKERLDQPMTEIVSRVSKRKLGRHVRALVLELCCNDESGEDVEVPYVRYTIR
Test: UAE transthiolation assay (Ub transfer to His6-UbcH6)
Format: biochemical

Nc1ncnc2c1ncn2[C@@H]1O[C@H](C(=O)NCCCCCC(=O)N2CCNCCNCCNCC2)[C@@H](O)[C@H]1O.O=S(=O)([O-])C(F)(F)F.O=S(=O)([O-])C(F)(F)F.[Zn+2] [Compound 1.5.Zn, (2S,3S,4R,5R)—N-(6-(1,4,7,10-tetraazacyclododecan-1-yl)-6-oxohexyl)-5-(6-amino-9H-purin-9-yl)-3,4-dihydroxytetrahydrofuran-2-carboxamide zinc trifluoromethanesulfonate]
pIC50 (n=3-6): 4.12 and 4.11 | selectivity for UBA5 over UAE (ratio of IC50): > 20 fold and ~20 fold
